The text below walks through data of ChEMBL document CHEMBL5113447, “Synthesis of baicalein derivatives and evaluation of their antiviral activity against arboviruses” (Bioorg Med Chem Lett, 2022).

Broadly, the IC50 is the midpoint of a concentration-inhibition curve. The term CC50 denotes the concentration at which the toxic effect on the cells reaches its halfway point. What is called inhibition is the percentage by which the read-out fell short of the control.

The structures appear in SMILES notation.

For data set [1], the system named is Chikungunya virus. The experiment in a line: Antiviral activity against CHIKV infected in human Huh-7 cells assessed as inhibition of viral infection by measuring EGFP-positive cells measured 24 hrs post infection by fluorescent microscopic analysis. The format is functional, organism-based. The settings on record: Huh-7, 24 h.
Data set [2] in a line: Cytotoxicity against human Huh-7 cells assessed as reduction in cell viability incubated for 24 hrs by CCK-8 assay. The format is toxicity, cell-based. For orientation: Tetrazolium assays rely on reduction of a dye to a coloured formazan, in cell work by metabolically active cells.
In data set [3] the test system is West Nile virus. The experiment in a line: Antiviral activity against WNV infected in human Huh-7 cells assessed as inhibition of viral infection measured 24 hrs post infection by immunofluorescent assay. The format is functional, organism-based. The following applies: Huh-7, 24 h.
For data set [4], the system named is Zika virus. The experiment in a line: Antiviral activity against ZIKV infected in human Huh-7 cells assessed as inhibition of viral infection measured 24 hrs post infection by immunofluorescent assay. The format is functional, organism-based. The following applies: Huh-7, 24 h.
In data set [5] the test system is Zika virus. The experiment in a line: Potency index, ratio of baicalein IC50 to test compound IC50 for antiviral activity against ZIKV infected in human Huh-7 cells assessed as inhibition of viral infection measured 24 hrs post infection by immunofluorescent assay. The format is functional.
The test system of data set [6] is West Nile virus. The experiment in a line: Potency index, ratio of baicalein IC50 to test compound IC50 for antiviral activity against WNV infected in human Huh-7 cells assessed as inhibition of viral infection measured 24 hrs post infection by immunofluorescent assay. Format: functional.
For data set [7], the system named is Chikungunya virus. The experiment in a line: Potency index, ratio of baicalein IC50 to test compound IC50 for antiviral activity against CHIKV infected in human Huh-7 cells assessed as inhibition of viral infection by measuring EGFP-positive cells measured 24 hrs post infection by fluorescent microscopic analysis. Format: functional.
The subject of data set [8] is West Nile virus. The experiment in a line: Antiviral activity against WNV infected in human Huh-7 cells assessed as inhibition of viral infection at 20 uM measured 24 hrs post infection by immunofluorescent assay relative to control. Format: functional.
Data set [9] has as its system Zika virus. The experiment in a line: Antiviral activity against ZIKV infected in human Huh-7 cells assessed as inhibition of viral infection at 20 uM measured 24 hrs post infection by immunofluorescent assay relative to control. The format is functional.

As for `O=c1cc(-c2ccc(N3CCN(c4ccc(O)cc4)CC3)cc2)oc2cc(O)c(O)c(O)c12`, the IC50 in the data set on Chikungunya virus [1] came out at 5.9 µM; in the data set on West Nile virus [3] it was 6.6 µM; in the data set on Zika virus [4] it was 6.9 µM. Further, in data set [2], the CC50 at 24 h was over 100 µM.

Take `O=c1cc(-c2ccccc2)oc2c(-c3ccc(F)cc3)c(O)c(O)c(O)c12`: the values for the 50% inhibitory concentration (IC50) in the data set with Chikungunya virus [1], with West Nile virus [3] and in the data set on Zika virus [4] were 4.2 µM, 3.1 µM and 2.5 µM, respectively. Also, in [2], the CC50 at 24 h is over 100 µM. Further, the “Ratio IC50” value with Zika virus [5] is on record as over 5.

In the case of `Oc1c(O)c(O)c2c(=S)cc(-c3ccccc3)oc2c1-c1ccc(C(F)(F)F)cc1`, the IC50 with Chikungunya virus [1] was found to be 2.7 µM; in the data set with West Nile virus [3], 2.1 µM; in the data set with Zika virus [4], 3.8 µM. In addition, the cytotoxic concentration (CC50) at 24 h in [2] is over 100 µM. Further, the “Ratio IC50” value in the data set on West Nile virus [6] is over 6; in the data set on Zika virus [5], over 5; in the data set on Chikungunya virus [7], over 5.

`Cc1ccc(-c2c(O)c(O)c(O)c3c(=O)cc(-c4ccccc4)oc23)cc1`: the IC50 in the data set on Chikungunya virus [1] is 7.9 µM. Moreover, the half-maximal cytotoxic concentration (CC50) at 24 h in data set [2] is over 100 µM. Also, the inhibition at 20 µM in the data set on West Nile virus [8] and in the data set on Zika virus [9] was under 50% each time.

Regarding `O=c1cc(-c2ccc(Nc3ccc(Br)cc3)cc2)oc2cc(O)c(O)c(O)c12`, the values for the IC50 in the data set with Chikungunya virus [1], with West Nile virus [3] and in the data set with Zika virus [4] were 5.2 µM, 4.1 µM and 6.7 µM, respectively. The CC50 at 24 h in [2] was over 100 µM.

As to `Oc1c(O)c(O)c2c(=S)cc(-c3ccccc3)oc2c1-c1ccc(F)cc1`, the concentration for half-maximal inhibition (IC50) amounted to 4.7 µM with Chikungunya virus [1], 6.2 µM in the data set on West Nile virus [3] and 7.7 µM in the data set with Zika virus [4]. In data set [2], the CC50 at 24 h is over 100 µM.

With `O=c1cc(-c2ccc(Nc3ccc(Cl)cc3)cc2)oc2cc(O)c(O)c(O)c12`, the figures for the IC50 with Chikungunya virus [1], in the data set on West Nile virus [3] and with Zika virus [4] were 3.4 µM, 2.4 µM and 1.9 µM, respectively. For the same compound, the CC50 at 24 h in [2] is over 100 µM. The “Ratio IC50” value in the data set on West Nile virus [6] is reported as over 6; in the data set with Zika virus [5], over 5; in the data set with Chikungunya virus [7] it was over 5.

For `O=c1cc(-c2ccccc2)oc2cc(O)c(O)c(O)c12` [BAICALEIN], the IC50 with Chikungunya virus [1] was 16.9 µM; in the data set with West Nile virus [3], 14.5 µM; in the data set with Zika virus [4] it was 19.6 µM. In data set [2], the CC50 at 24 h was over 100 µM.

As for `COc1cc2oc(-c3ccccc3)cc(=S)c2c(OC)c1OC`, the IC50 in the data set on Chikungunya virus [1] came out at 9.7 µM. The CC50 at 24 h in data set [2] is over 100 µM. The inhibition at 20 µM with West Nile virus [8] and with Zika virus [9] was under 50% each time.

Take `CN1CCN(c2ccc(-c3cc(=O)c4c(O)c(O)c(O)cc4o3)cc2)CC1`: the IC50 in the data set with Chikungunya virus [1] is 8.9 µM. Besides, the CC50 at 24 h in data set [2] is over 100 µM. Also, the inhibition at 20 µM in the data set on West Nile virus [8] and with Zika virus [9] was under 50% throughout.

Consider `Oc1cc2oc(-c3ccccc3)cc(=S)c2c(O)c1O`, for which the IC50 in the data set on Chikungunya virus [1] is 7.6 µM. Moreover, the CC50 at 24 h in data set [2] is over 100 µM. Further, the inhibition at 20 µM with West Nile virus [8] and in the data set on Zika virus [9] was under 50% throughout.

With `COc1cc2oc(-c3ccc(N4CCN(C)CC4)cc3)cc(=O)c2c(OC)c1OC`, in the data set on Chikungunya virus [1], the IC50 is 11.5 µM. In [2], the CC50 at 24 h was over 100 µM. Moreover, the inhibition at 20 µM in the data set with West Nile virus [8] and with Zika virus [9] was under 50% throughout.

`O=c1cc(-c2ccccc2)oc2c(-c3cccc(F)c3)c(O)c(O)c(O)c12`: the IC50 amounted to 4.3 µM in the data set with Chikungunya virus [1], 2.9 µM with West Nile virus [3] and 3.5 µM in the data set on Zika virus [4]. The CC50 at 24 h in data set [2] is over 100 µM. Further, the “Ratio IC50” value in the data set on Zika virus [5] was over 5.

With `COc1cc2oc(-c3ccc(Nc4ccc(F)cc4)cc3)cc(=O)c2c(OC)c1OC`, the IC50 in the data set on Chikungunya virus [1] is 9.7 µM. In addition, the 50% cytotoxic concentration (CC50) at 24 h in data set [2] is 77.6 µM. Moreover, the inhibition at 20 µM with West Nile virus [8] and in the data set on Zika virus [9] was under 50% each time.

As to `O=c1cc(-c2ccccc2)oc2c(-c3ccccc3)c(O)c(O)c(O)c12`, the IC50 worked out at 5.8 µM in the data set with Chikungunya virus [1], 3.1 µM in the data set on West Nile virus [3] and 5.8 µM in the data set with Zika virus [4]. The CC50 at 24 h in data set [2] was found to be 86.3 µM.

On to `O=c1cc(-c2ccc(N3CCN(c4cccc(Cl)c4)CC3)cc2)oc2cc(O)c(O)c(O)c12`, for which the figures for the IC50 in the data set with Chikungunya virus [1], in the data set on West Nile virus [3] and with Zika virus [4] were 4.3 µM, 5.1 µM and 5.7 µM, respectively. For the same compound, the CC50 at 24 h in data set [2] was over 100 µM.

With `O=c1cc(-c2ccccc2)oc2c(-c3ccc(OC(F)(F)F)cc3)c(O)c(O)c(O)c12`, the IC50 in the data set on Chikungunya virus [1] was determined as 5.2 µM; in the data set on West Nile virus [3], 6.4 µM; in the data set with Zika virus [4], 8.3 µM. Further, in data set [2], the CC50 at 24 h is over 100 µM.

With `Oc1c(O)c(O)c2c(=S)cc(-c3ccccc3)oc2c1-c1cccc(F)c1`, in the data set on Chikungunya virus [1], the IC50 worked out at 9.7 µM. Moreover, the CC50 at 24 h in data set [2] was over 100 µM. Besides, the inhibition at 20 µM with West Nile virus [8] and in the data set with Zika virus [9] was under 50% each time.

Consider `Cc1cccc(-c2c(O)c(O)c(O)c3c(=O)cc(-c4ccccc4)oc23)c1`, for which the concentration for half-maximal inhibition (IC50) in the data set with Chikungunya virus [1] came out at 8.7 µM. Also, the CC50 at 24 h in data set [2] is over 100 µM. Moreover, the inhibition at 20 µM in the data set on West Nile virus [8] and in the data set with Zika virus [9] was under 50% in each case.

Consider `O=c1cc(-c2ccccc2)oc2c(-c3cc(F)cc(F)c3)c(O)c(O)c(O)c12`, for which the IC50 in the data set with Chikungunya virus [1] amounted to 8.6 µM. Also, the CC50 at 24 h in data set [2] is over 100 µM. The inhibition at 20 µM in the data set on West Nile virus [8] and in the data set on Zika virus [9] was under 50% throughout.

With `COc1c(OC)c(OC)c2c(=O)cc(-c3ccccc3)oc2c1-c1ccc(OC(F)(F)F)cc1`, the IC50 in the data set with Chikungunya virus [1] stood at 17.8 µM. For the same compound, in data set [2], the CC50 at 24 h was over 100 µM. The inhibition at 20 µM in the data set on West Nile virus [8] and with Zika virus [9] was under 50% in each case.

As to `O=c1cc(-c2ccc(Nc3ccc(F)cc3)cc2)oc2cc(O)c(O)c(O)c12`, the values for the IC50 in the data set with Chikungunya virus [1], in the data set with West Nile virus [3] and in the data set on Zika virus [4] were 4.8 µM, 4.5 µM and 6.9 µM, respectively. Also, in data set [2], the 50% cytotoxic concentration (CC50) at 24 h was over 100 µM.
